Experimental data reported in US9850283B2, “Macrocyclic inhibitors of the PD-1/PD-L1 and CD80(B7-1)/PD-L1 protein/protein interactions” (BRISTOL-MYERS SQUIBB COMPANY, priority 2013, dated 2017).
pIC50: −log10 of the molar value. Where two headings read alike, the source gives them in different places. Positions of bridges follow the written chain, without caps; N, C: chain ends. Non-standard residues stand in square brackets, D forms with d. Residues, ends and D or L forms follow the SMILES beside them. Ala(indol-4-yl) = N[C@@H](Cc1cccc2[nH]ccc12)C(=O)O; Phe(4-CH2NH2) = NCc1ccc(C[C@H](N)C(=O)O)cc1; pY = N[C@@H](Cc1ccc(OP(=O)(O)O)cc1)C(=O)O; Phe(4-Cl) = N[C@@H](Cc1ccc(Cl)cc1)C(=O)O; Bta = N[C@@H](Cc1csc2ccccc12)C(=O)O; NMeF = CN[C@@H](Cc1ccccc1)C(=O)O; NMeNle = CCCC[C@H](NC)C(=O)O; Sar = CNCC(=O)O

Experiments:
Human PD-L1/PD-1 = molecular target: T1, Human PD-L1/PD-1 (Homo sapiens, UniProt Q9NZQ7); experiment: HTRF PD-1-Ig/PD-L1-His binding assay (human PD-L1); conditions: cluster symbol
T1 construct: made in house; host or cells: HEK293T
Procedure, shortened: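 Interaction of Fc-tagged soluble PD-1 with His-tagged soluble PD-L1 is monitored by time-resolved FRET. Donor is europium cryptate anti-Ig (1 nM final) and acceptor is APC anti-His (20 nM final). Assay buffer is dPBS with 0.1% BSA and 0.05% Tween-20.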

[1] = molecular target: T2, LK35.2-hPD-L1 cells / PE-labeled PD-1-Ig (Homo sapiens, UniProt Q9NZQ7); experiment: LK35.2-hPD-L1 cell binding high-content screening assay; assay type: cell-based; conditions: cluster symbol, cell line of CBA not given (LK35.2-hPD-L1 or 293T-hPD-L1)
T2 construct: expressed in transfected cells; host or cells: LK35.2 mouse B cell line
Procedure, shortened: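 Compound effect on PD-1/PD-L1 binding is measured by imaging cell-associated phycoerythrin signal. Human PD-1-Ig (PE on Ig tag, 1 nM final) is applied with compound to a murine B cell line overexpressing human PD-L1 for 1 h at 37 °C in serum-containing RPMI.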

T1 sequence (Q9NZQ7 with tags, fused parts or gaps): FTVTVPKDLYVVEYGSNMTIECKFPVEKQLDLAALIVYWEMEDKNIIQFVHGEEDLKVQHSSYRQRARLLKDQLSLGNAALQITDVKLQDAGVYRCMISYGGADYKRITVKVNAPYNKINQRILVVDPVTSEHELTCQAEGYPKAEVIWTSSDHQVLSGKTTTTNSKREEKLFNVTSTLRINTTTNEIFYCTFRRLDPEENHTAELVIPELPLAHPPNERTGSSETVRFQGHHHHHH
T2 sequence (Q9NZQ7 19-290): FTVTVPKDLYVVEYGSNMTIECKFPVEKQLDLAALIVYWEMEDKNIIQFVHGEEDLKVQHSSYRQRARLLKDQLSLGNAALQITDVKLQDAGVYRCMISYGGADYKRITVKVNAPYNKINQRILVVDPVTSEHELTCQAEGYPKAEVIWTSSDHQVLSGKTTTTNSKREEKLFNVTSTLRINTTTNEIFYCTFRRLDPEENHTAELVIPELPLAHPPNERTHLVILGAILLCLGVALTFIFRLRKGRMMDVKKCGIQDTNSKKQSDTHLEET

Row | pIC50 (Human PD-L1/PD-1; read-out: HTRF IC50 cluster) | pIC50 ([1]; read-out: CBA IC50 cluster) | SMILES | pIC50 (Human PD-L1/PD-1; HTRF IC50 cluster) | pIC50 ([1]; CBA IC50 cluster)
1 | < 7.52 | < 7.13 | CC(C)C[C@@H]1NC(=O)[C@H](Cc2ccc(O)cc2)NC(=O)[C@H](Cc2c[nH]c3ccccc23)NC(=O)CN(C)C(=O)[C@H](Cc2ccc(O)cc2)NC(=O)[C@H](Cc2ccccc2)N(C)C(=O)[C@H](C(C)C)NC(=O)[C@H](CC(=O)O)NC(=O)CN(C)C(=O)[C@H](Cc2ccc(O)cc2)N(C)C(=O)[C@H](Cc2ccccc2)N(C)C(=O)[C@H](Cc2ccccc2)NC(=O)CSC[C@@H](C(=O)NCC(N)=O)NC1=O [Example 3060-B] (HELM PEPTIDE1{[O=C(C[*:3])[*:2]].F.[meF].[meY].[Sar].D.V.[meF].Y.[Sar].W.Y.L.C.G.[am]}$PEPTIDE1,PEPTIDE1,1:R3-14:R3$$$V2.0) |  | 
2 | 7.52 to 8.17 | < 7.13 | CC(C)C[C@@H]1NC(=O)[C@H](Cc2ccc(O)cc2)NC(=O)[C@H](Cc2c[nH]c3ccccc23)NC(=O)CN(C)C(=O)[C@H](Cc2ccc(O)cc2)NC(=O)[C@H](Cc2ccccc2)N(C)C(=O)[C@H](C(C)C)NC(=O)[C@H](CC(=O)O)NC(=O)CN(C)C(=O)[C@H](CCC(=O)O)N(C)C(=O)[C@H](Cc2ccccc2)N(C)C(=O)[C@H](Cc2ccccc2)NC(=O)CSC[C@@H](C(=O)NCC(N)=O)NC1=O [Example 3061] (HELM PEPTIDE1{[O=C(C[*:3])[*:2]].F.[meF].[meE].[Sar].D.V.[meF].Y.[Sar].W.Y.L.C.G.[am]}$PEPTIDE1,PEPTIDE1,1:R3-14:R3$$$V2.0) |  | 
3 | 8.17 to 9.41 | 7.14 to 8.32 | CCCC[C@H]1C(=O)N(C)CC(=O)N[C@@H](CC(=O)O)C(=O)N[C@@H](C(C)C)C(=O)N(C)[C@@H](Cc2ccccc2)C(=O)N[C@@H](Cc2ccc(O)cc2)C(=O)N(C)CC(=O)N[C@@H](Cc2csc3ccccc23)C(=O)N[C@@H](Cc2ccc(O)cc2)C(=O)N[C@@H](CC(C)C)C(=O)N[C@H](C(=O)NCC(N)=O)CSCC(=O)N[C@@H](Cc2ccccc2)C(=O)N(C)[C@@H](Cc2ccccc2)C(=O)N1C [Example 3062] ({CH2CO}-F[NMeF][NMeNle][Sar]DV[NMeF]Y[Sar][Bta]YLCG-NH2; thioether N-13) |  | 
4 | < 7.52 | < 7.13 | CCCC[C@H]1C(=O)N(C)CC(=O)N[C@@H](CC(=O)O)C(=O)N[C@@H](C(C)C)C(=O)N(C)[C@@H](Cc2ccccc2)C(=O)N[C@@H](Cc2ccc(O)cc2)C(=O)N(C)CC(=O)N[C@@H](Cc2c[nH]c3ccccc23)C(=O)N[C@@H](Cc2ccc(O)cc2)C(=O)N[C@@H](CC(C)C)C(=O)N[C@H](C(=O)NCC(N)=O)CSCC(=O)N[C@@H](Cc2ccc(CN)cc2)C(=O)N(C)[C@@H](Cc2ccccc2)C(=O)N1C [Example 3063] ({CH2CO}-[Phe(4-CH2NH2)][NMeF][NMeNle][Sar]DV[NMeF]Y[Sar]WYLCG-NH2; thioether N-13) |  | 
5 | 7.52 to 8.17 | < 7.13 | CCCC[C@H]1C(=O)N(C)CC(=O)N[C@@H](CC(=O)O)C(=O)N[C@@H](C(C)C)C(=O)N(C)[C@@H](Cc2ccccc2)C(=O)N[C@@H](Cc2ccc(O)cc2)C(=O)N(C)CC(=O)N[C@@H](Cc2c[nH]c3ccccc23)C(=O)N[C@@H](Cc2ccc(O)cc2)C(=O)N[C@@H](CC(C)C)C(=O)N[C@H](C(=O)NCC(N)=O)CSCC(=O)N[C@@H](Cc2ccccc2)C(=O)N(C)[C@@H](CCC(=O)O)C(=O)N1C [Example 3064] (HELM PEPTIDE1{[O=C(C[*:3])[*:2]].F.[meE].[CCCC[C@@H](C(=O)[*:2])N(C)[*:1]].[Sar].D.V.[meF].Y.[Sar].W.Y.L.C.G.[am]}$PEPTIDE1,PEPTIDE1,1:R3-14:R3$$$V2.0) |  | 
6 | < 7.52 | < 7.13 | CCCC[C@H]1C(=O)N(C)CC(=O)N[C@@H](CC(=O)O)C(=O)N[C@@H](C(C)C)C(=O)N(C)[C@@H](Cc2ccccc2)C(=O)N[C@@H](Cc2ccc(O)cc2)C(=O)N(C)CC(=O)N[C@@H](Cc2c[nH]c3ccccc23)C(=O)N[C@@H](Cc2ccc(O)cc2)C(=O)N[C@@H](CC(C)C)C(=O)N[C@H](C(=O)NCC(N)=O)CSCC(=O)N[C@@H](Cc2ccc(O)cc2)C(=O)N(C)[C@@H](Cc2ccccc2)C(=O)N1C [Example 3065] (HELM PEPTIDE1{[O=C(C[*:3])[*:2]].Y.[meF].[CCCC[C@@H](C(=O)[*:2])N(C)[*:1]].[Sar].D.V.[meF].Y.[Sar].W.Y.L.C.G.[am]}$PEPTIDE1,PEPTIDE1,1:R3-14:R3$$$V2.0) |  | 
7 |  |  | CCCC[C@H]1C(=O)N(C)CC(=O)N[C@@H](CC(=O)O)C(=O)N[C@@H](C(C)C)C(=O)N(C)[C@@H](Cc2ccccc2)C(=O)N[C@@H](Cc2ccc(O)cc2)C(=O)N(C)CC(=O)N[C@@H](Cc2c[nH]c3ccccc23)C(=O)N[C@@H](Cc2ccc(O)cc2)C(=O)N[C@@H](CC(C)C)C(=O)N[C@H](C(=O)NCC(N)=O)CSCC(=O)N[C@@H](Cc2ccc(OP(=O)(O)O)cc2)C(=O)N(C)[C@@H](Cc2ccccc2)C(=O)N1C [Example 3066] ({CH2CO}-[pY][NMeF][NMeNle][Sar]DV[NMeF]Y[Sar]WYLCG-NH2; thioether N-13) | < 7.52 | < 7.13
8 | 8.17 to 9.41 | 8.33 to 9.80 | CCCC[C@H]1C(=O)N(C)CC(=O)N[C@@H](CC(=O)O)C(=O)N[C@@H](C(C)C)C(=O)N(C)[C@@H](Cc2ccccc2)C(=O)N[C@@H](Cc2ccc(O)cc2)C(=O)N(C)CC(=O)N[C@@H](Cc2c[nH]c3ccccc23)C(=O)N[C@@H](Cc2ccc(O)cc2)C(=O)N[C@@H](CC(C)C)C(=O)N[C@H](C(=O)NCC(N)=O)CSCC(=O)N[C@@H](Cc2ccc(Cl)cc2)C(=O)N(C)[C@@H](Cc2ccccc2)C(=O)N1C [Example 3067] ({CH2CO}-[Phe(4-Cl)][NMeF][NMeNle][Sar]DV[NMeF]Y[Sar]WYLCG-NH2; thioether N-13) |  | 
9 | < 7.52 | < 7.13 | CCCC[C@H]1C(=O)N2CCC[C@H]2C(=O)N[C@@H](CC(=O)O)C(=O)N[C@@H](C(C)C)C(=O)N(C)[C@@H](Cc2ccccc2)C(=O)N[C@@H](Cc2ccc(O)cc2)C(=O)N(C)CC(=O)N[C@@H](Cc2c[nH]c3ccccc23)C(=O)N[C@@H](Cc2ccc(O)cc2)C(=O)N[C@@H](CC(C)C)C(=O)N[C@H](C(=O)NCC(N)=O)CSCC(=O)N[C@@H](Cc2ccccc2)C(=O)N(C)[C@@H](Cc2ccccc2)C(=O)N1C [Example 3068] (HELM PEPTIDE1{[O=C(C[*:3])[*:2]].F.[meF].[CCCC[C@@H](C(=O)[*:2])N(C)[*:1]].P.D.V.[meF].Y.[Sar].W.Y.L.C.G.[am]}$PEPTIDE1,PEPTIDE1,1:R3-14:R3$$$V2.0) |  | 
10 | < 7.52 | < 7.13 | CCCC[C@H]1C(=O)N(C)CC(=O)N[C@@H](CC(=O)O)C(=O)N[C@@H](C(C)C)C(=O)N(C)[C@@H](Cc2ccccc2)C(=O)N[C@@H](Cc2ccc(O)cc2)C(=O)N2CCC[C@H]2C(=O)N[C@@H](Cc2c[nH]c3ccccc23)C(=O)N[C@@H](Cc2ccc(O)cc2)C(=O)N[C@@H](CC(C)C)C(=O)N[C@H](C(=O)NCC(N)=O)CSCC(=O)N[C@@H](Cc2ccccc2)C(=O)N(C)[C@@H](Cc2ccccc2)C(=O)N1C [Example 3069] (HELM PEPTIDE1{[O=C(C[*:3])[*:2]].F.[meF].[CCCC[C@@H](C(=O)[*:2])N(C)[*:1]].[Sar].D.V.[meF].Y.P.W.Y.L.C.G.[am]}$PEPTIDE1,PEPTIDE1,1:R3-14:R3$$$V2.0) |  | 
11 | < 7.52 | < 7.13 | CCCC[C@H]1C(=O)N2CCC[C@H]2C(=O)N[C@@H](CC(=O)O)C(=O)N[C@@H](C(C)C)C(=O)N(C)[C@@H](Cc2ccccc2)C(=O)N[C@@H](Cc2ccc(O)cc2)C(=O)N2CCC[C@H]2C(=O)N[C@@H](Cc2c[nH]c3ccccc23)C(=O)N[C@@H](Cc2ccc(O)cc2)C(=O)N[C@@H](CC(C)C)C(=O)N[C@H](C(=O)NCC(N)=O)CSCC(=O)N[C@@H](Cc2ccccc2)C(=O)N(C)[C@@H](Cc2ccccc2)C(=O)N1C [Example 3070] (HELM PEPTIDE1{[O=C(C[*:3])[*:2]].F.[meF].[CCCC[C@@H](C(=O)[*:2])N(C)[*:1]].P.D.V.[meF].Y.P.W.Y.L.C.G.[am]}$PEPTIDE1,PEPTIDE1,1:R3-14:R3$$$V2.0) |  | 
12 | 7.52 to 8.17 | 7.14 to 8.32 | CCCC[C@H]1C(=O)N(C)CC(=O)N[C@@H](CC(=O)O)C(=O)N[C@@H](C(C)C)C(=O)N(C)[C@@H](Cc2ccccc2)C(=O)N[C@@H](Cc2ccc(O)cc2)C(=O)N(C)CC(=O)N[C@@H](Cc2cccc3[nH]ccc23)C(=O)N[C@@H](Cc2ccc(O)cc2)C(=O)N[C@@H](CC(C)C)C(=O)N[C@H](C(=O)NCC(N)=O)CSCC(=O)N[C@@H](Cc2ccccc2)C(=O)N(C)[C@@H](Cc2ccccc2)C(=O)N1C [Example 3071] ({CH2CO}-F[NMeF][NMeNle][Sar]DV[NMeF]Y[Sar][Ala(indol-4-yl)]YLCG-NH2; thioether N-13) |  | 
13 | < 7.52 | < 7.13 | CCCC[C@H]1C(=O)N(C)CC(=O)N[C@@H](CC(=O)O)C(=O)N[C@@H](C(C)C)C(=O)N(C)[C@@H](Cc2ccccc2)C(=O)N[C@@H](Cc2ccc(O)cc2)C(=O)N(C)CC(=O)N[C@@H](CCC(=O)O)C(=O)N[C@@H](Cc2ccc(O)cc2)C(=O)N[C@@H](CC(C)C)C(=O)N[C@H](C(=O)NCC(N)=O)CSCC(=O)N[C@@H](Cc2ccccc2)C(=O)N(C)[C@@H](Cc2ccccc2)C(=O)N1C [Example 3072] (HELM PEPTIDE1{[O=C(C[*:3])[*:2]].F.[meF].[CCCC[C@@H](C(=O)[*:2])N(C)[*:1]].[Sar].D.V.[meF].Y.[Sar].E.Y.L.C.G.[am]}$PEPTIDE1,PEPTIDE1,1:R3-14:R3$$$V2.0) |  | 
